Measurements published in patent US8765755B2, “N-containing heterocyclic compounds” (YM Biosciences Australia Pty Ltd, priority 2007, dated 2014).
pIC50: −log10 of the molar value.

Experiments:
BafT_J2 = experiment: Cellular screening, BaF3 TEL:JAK2 cells (Alamar Blue); type: cell-based; details: Mus musculus, 40 hr incubation
Procedure: (§1) For screening purposes, compounds were diluted in 96 well plates at a concentration of 20 μM. Plates were warmed at 37° C. for 30 minutes before the assay was performed.
(§2) The coding region encompassing nucleotides 1-487 of TEL was amplified by PCR using the oligonucleotides 5TEL (5′-GGAGGATCCTGATCTCTCTCGCTGTGAGAC-3′) [SEQ ID NO 14] and 3TEL (5′-AGGC GTCGACTTCTTCTTCATGGTTCTG-3′) [SEQ ID NO 15] and U937 mRNA as a template. A BamHI restriction site was incorporated into the 5TEL primer, and a Sal I restriction site was incorporated into the 3TEL primer. The regions encompassing the kinase domain of JAK2 (nucleotides 2994-3914; JAK2F 5′-ACGC GTCGACGGTGCCTTTGAAGACCGGGAT-3′ [SEQ ID NO 16]; JAK2R 5′-ATAGTTTAGCGGCCGCTCAGAATGAAGGTCATTT-3′) [SEQ ID NO 17] and JAK3 (nucleotides 2520-3469; JAK3F 5′-GAAGTCGACTATGCCTGCCAAGACCCCACGATCTT-3′) [SEQ ID NO 18] were generated by PCR using Taq DNA polymerase (Gibco/BRL) and U937 mRNA as a template. A Sal I restriction site was incorporated into the forward primer of JAK2 and JAK3, a Not I site was incorporated into the JAK2 reverse primer and a Xba I site was added to the reverse primer of JAK3.
A TEL/Jak2 fusion was generated by digestion of the TELPCR product with BamH I/Sal I restriction enzymes, digestion of the JAK2 PCR product with Sal I/Not I restriction enzymes, followed by ligation and subcloning of the ligation product into the mammalian expression Vector pTRE 2 (Clontech), which was prepared by digestion with BamH I-Not I restriction enzymes, to give the TEL/Jak2 fusion plasmid pTELJAK2.
(§3) The growth factor dependant myelomonocytic cell line BaF3 bearing the pTET-off plasmid (Clontech) was transfected with either pTELJAK2 or pTELJAK3, and the transfected cells were selected for growth-factor independent cell growth. The BaF3 wild-type cells were cultured in DMEM containing 10% FCS, 10% WEHI 3B conditioned medium. The BaF3 TELJAK cells ([…]) were cultured in DMEM 10% Tet-System Approved FBS (without WEHI 3B conditioned medium).
(§4) Cell suspensions were prepared by harvesting cells from culture. (the cells used in this test were in late log phase growth with high viability.) Cells were diluted in the appropriate growth medium, as described above, to 1.1× final concentration (from 50,000 cell/mL to 200,000 cell/mL, depending on cell line).
(§5) Compounds to be tested were added (10 μL, 10× final concentration) to a flat bottomed 96-well plate. The cellular suspension (90 μL per well) was then added, and the plate incubated for 40 hr at 37° C., 5% CO2. Alamar Blue 10 μL per well was added and the plates returned to the incubator for a further 4-6 hours. The plates were then read at 544 nm.

BAF3wt = experiment: Cellular screening, BaF3 wild-type cells (Alamar Blue); type: cell-based; details: Mus musculus, 40 hr incubation
Procedure: as §1, §3, §4, §5

human JAK3 = molecular target: T1, human JAK3 (Homo sapiens, UniProt P52333); experiment: JAK3 kinase enzyme assay (Alphascreen); type: biochemical; details: 80 or 625 um ATP
T1 construct: The kinase domain of human JAK3 was amplified; GST (N); made in house; host or cells: Sf9 (Spodoptera frugiperda) insect cells, baculovirus
T1 sequence (P52333 822-1111 limits assumed): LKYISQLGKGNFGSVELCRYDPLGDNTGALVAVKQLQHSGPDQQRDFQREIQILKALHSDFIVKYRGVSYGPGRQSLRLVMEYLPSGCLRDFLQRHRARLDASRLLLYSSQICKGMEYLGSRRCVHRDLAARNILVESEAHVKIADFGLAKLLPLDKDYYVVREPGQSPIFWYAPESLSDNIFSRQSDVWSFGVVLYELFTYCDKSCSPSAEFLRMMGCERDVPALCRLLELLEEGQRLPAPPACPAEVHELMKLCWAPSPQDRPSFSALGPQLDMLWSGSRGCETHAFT
Procedure: (§6) For screening purposes, compounds (in 100% DMSO) were warmed at 37 degrees for at least 20 minutes before use. A […] stock was initially made in assay buffer, where the final concentration of DMSO was 0.3%. The stocks were then diluted in 384 well Optiplates (Packard) where the final concentration of the compound was 5 μM.
The kinase domain of human JAK3 was amplified from U937mRNA using the polymerase chain reaction with the following primers: […]
The JAK3 PCR products were cloned into the pDest20 destination expression vector (Gibco). The JAK3 plasmid was then transformed into competent DH10Bac cells (Gibco), and the recombinant baculovirus was prepared via Sf9 insect cell transfection.
(§7) Baculovirus preparations from each of the JAK family members were infected into one litre of Sf9 (Spodoptera frugiperda) cells (Invitrogen) grown in SF900II serum free medium (Invitrogen) to a cell density of approximately 2×10^6 cells/ml. Cells were infected with virus at a cell culture to virus stock ratio of 20:1. Cells were harvested and lysed 48 hours post infection. The GST-tagged JAK kinase domains were purified by affinity chromatography on a GSH agarose column (Scientifix).
(§8) Kinase assays were performed in 384 well Optiplates (Packard) using an Alphascreen Protein Tyrosine KinaseP100 detection kit The compounds were pre-incubated with affinity purified PTK domain in the presence of phosphotyrosine assay buffer (10 mM HEPES, pH 7.5, 100 mM MgCl2, 25 mM NaCl, 200 mM sodium vanadate and 0.1% Tween 20) for 20 minutes. The compounds were then incubated with substrate in the presence of either 80 or 625 um ATP for 60 or 90 minutes. The substrate used was either susbtrate-1 with the sequence biotin-EGPWLEEEEEAYGWMDF-NH2 [SEQ. ID. NO. 13] (final concentration 111 μM) or susbtrate-2 substrate with the sequence biotin-EQEDEPEGDYFEWLEPE (final concentration 133 μM). Alphascreen phosphotyrosine acceptor beads followed by streptavidin donor beads at a concentration of 1/100 in stop buffer were added to each well under subdued light and incubated for 2-3 hours. The Alphascreen plates were read on a Packard Fusion Alpha instrument.

human JAK2 = molecular target: T2, human JAK2 (Homo sapiens, UniProt O60674); experiment: JAK2 kinase enzyme assay (Alphascreen); type: biochemical; details: 80 or 625 um ATP
T2 construct: The kinase domain of human JAK2 was amplified; GST (N); made in house; host or cells: Sf9 (Spodoptera frugiperda) insect cells, baculovirus
T2 sequence (O60674 849-1124 limits assumed): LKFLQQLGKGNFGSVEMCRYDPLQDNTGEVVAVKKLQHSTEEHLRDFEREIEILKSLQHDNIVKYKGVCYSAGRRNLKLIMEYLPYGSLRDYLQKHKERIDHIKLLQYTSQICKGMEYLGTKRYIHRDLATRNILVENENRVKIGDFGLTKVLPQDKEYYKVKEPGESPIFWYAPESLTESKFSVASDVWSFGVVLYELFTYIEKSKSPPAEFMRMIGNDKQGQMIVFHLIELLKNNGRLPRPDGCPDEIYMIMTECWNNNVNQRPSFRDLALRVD
Procedure: as §6
The kinase domain of human JAK2 was amplified from U937mRNA using the polymerase chain reaction with the following primers: […]
The JAK2 PCR products were cloned into the pDest20 destination vector (Gibco). The JAK2 plasmid was then transformed into competent DH10Bac cells (Gibco), and the recombinant baculovirus was prepared via Sf9 insect cell transfection.
as §7, §8

CTLL2 = experiment: Cellular screening, CTLL2 cells (Alamar Blue); type: cell-based; details: Mus musculus, CTLL-2, 40 hr incubation
Procedure: as §1, §4, §5

BafT_J3 = experiment: Cellular screening, BaF3 TEL:JAK3 cells (Alamar Blue); type: cell-based; details: Mus musculus, 40 hr incubation
Procedure: as §1, §2
The TEL/Jak3 fusion was prepared by ligation of the JAK3 Sal I/Not I cleaved kinase domain PCR product with the BamH I/Sal I restriction digested TEL product, followed by ligation of the ligation product into the BamH I/Not I digested pTRE2, to give the TEL/Jak3 fusion plasmid pTELJAK3.
as §3, §4, §5

Compound | pIC50 (BafT_J2) | pIC50 (BAF3wt) | pIC50 (human JAK3) | pIC50 (human JAK2) | pIC50 (CTLL2) | pIC50 (BafT_J3)
COc1ncc(-c2csc3cnc(Nc4ccc(OC)c(OC)c4)nc23)c(OC)n1 [Compound 56, N-(3,4-dimethoxyphenyl)-7-(2,4-dimethoxypyrimidin-5-yl)thieno[3,2-d]pyrimidin-2-amine] | > 5.30 | > 5.30 | > 7.00 | > 7.00 | > 5.30 | > 5.30
CC(C)(C)NS(=O)(=O)c1cccc(-c2csc3cnc(Nc4ccc(CN5CCOCC5)cc4)nc23)c1 [Compound 58, N-tert-butyl-3-(2-(4-(morpholinomethyl)phenylamino)thieno[3,2-d]pyrimidin-7-yl)benzenesulfonamide] | > 6.00 | > 6.00 | > 6.30 | > 7.00 | > 6.00 | > 6.00
CC(=O)Nc1cccc(-c2csc3cnc(Nc4ccc(OCCN5CCCC5)cc4)nc23)c1 [Compound 62, N-(3-(2-(4-(2-(pyrrolidin-1-yl)ethoxy)phenylamino)thieno[3,2-d]pyrimidin-7-yl)phenyl)acetamide] | > 6.00 | > 6.00 | > 7.00 | > 7.00 | > 6.00 | > 6.00
N#CCNC(=O)c1cccc(-c2csc3cnc(Nc4ccc(N5CCOCC5)cc4)nc23)c1 [Compound 63, N-(cyanomethyl)-3-(2-(4-morpholinophenylamino)thieno[3,2-d]pyrimidin-7-yl)benzamide] | > 6.00 | > 6.00 | > 7.00 | > 7.00 | > 6.00 | > 6.00
CCN1CCC(Oc2ccc(Nc3ncc4scc(-c5cccc(S(=O)(=O)NC(C)(C)C)c5)c4n3)cc2)CC1 [Compound 65, N-tert-butyl-3-(2-(4-(1-ethylpiperidin-4-yloxy)phenylamino)thieno[3,2-d]pyrimidin-7-yl)benzenesulfonamide] | > 6.00 | > 5.30 | > 7.00 | > 7.00 | > 5.30 | > 6.00
CCN1CCN(Cc2ccc(Nc3ncc4scc(-c5cccc(S(=O)(=O)NC(C)(C)C)c5)c4n3)cc2)CC1 [Compound 68, N-tert-butyl-3-(2-(4-((4-ethylpiperazin-1-yl)methyl)phenylamino)thieno[3,2-d]pyrimidin-7-yl)benzenesulfonamide] | > 6.00 | > 6.00 | > 6.30 | > 7.00 | > 5.30 | > 6.00
N#CCNC(=O)c1cccc(-c2csc3cnc(Nc4ccc(CN5CCOCC5)cc4)nc23)c1 [Compound 70, N-(cyanomethyl)-3-(2-(4-(morpholinomethyl)phenylamino)thieno[3,2-d]pyrimidin-7-yl)benzamide] | > 6.00 | > 6.00 | > 7.00 | > 7.00 | > 5.30 | > 6.00
CC(C)(C)NS(=O)(=O)c1cccc(-c2csc3cnc(Nc4ccc(OCCN5CCCC5)cc4)nc23)c1 [Compound 71, N-tert-butyl-3-(2-(4-(2-(pyrrolidin-1-yl)ethoxy)phenylamino)thieno[3,2-d]pyrimidin-7-yl)benzenesulfonamide] | > 6.00 | > 5.30 | > 7.00 | > 7.00 | > 5.30 | > 6.00
CC(C)(C)OC(=O)NCc1cccc(-c2csc3cnc(Nc4ccc(OCCN5CCCC5)cc4)nc23)c1 [Compound 72] | > 6.00 | > 5.30 | > 7.00 | > 7.00 | > 6.00 | > 6.00
NS(=O)(=O)c1cccc(-c2csc3cnc(Nc4ccc(OCCN5CCCC5)cc4)nc23)c1 [Compound 73, 3-(2-(4-(2-(pyrrolidin-1-yl)ethoxy)phenylamino)thieno[3,2-d]pyrimidin-7-yl)benzenesulfonamide] | > 6.00 | > 6.00 | > 7.00 | > 7.00 | > 5.30 | > 6.00
Fc1ccc(-c2csc3cnc(Nc4ccc(OCCN5CCCC5)cc4)nc23)cc1Cl [Compound 74, 7-(3-chloro-4-fluorophenyl)-N-(4-(2-(pyrrolidin-1-yl)ethoxy)phenyl)thieno[3,2-d]pyrimidin-2-amine] | > 6.00 | > 5.30 | > 6.30 | > 7.00 | > 5.30 | > 5.30
c1cc(Nc2ncc3scc(-c4ccc5c(c4)OCO5)c3n2)ccc1CN1CCOCC1 [Compound 76, 7-(benzo[d][1,3]dioxol-5-yl)-N-(4-(morpholinomethyl)phenyl)thieno[3,2-d]pyrimidin-2-amine] | > 6.00 | > 6.00 | > 6.30 | > 7.00 | > 6.00 | > 6.00
CC(C)(C)OC(=O)N1CC=C(c2csc3cnc(Nc4ccc(CN5CCOCC5)cc4)nc23)CC1 [Compound 79, tert-butyl 4-(2-(4-(morpholinomethyl)phenylamino)thieno[3,2-d]pyrimidin-7-yl)-5,6-dihydropyridine-1(2H)-carboxylate] | > 6.00 | > 5.30 | > 7.00 | > 7.00 | > 6.00 | > 5.30
CC(=O)Nc1cccc(-c2csc3cnc(Nc4ccc(CN5CCOCC5)cc4)nc23)c1 [Compound 81, N-(3-(2-(4-(morpholinomethyl)phenylamino)thieno[3,2-d]pyrimidin-7-yl)phenyl)acetamide] | > 6.00 | > 6.00 | > 6.30 | > 7.00 | > 6.00 | > 6.00
